Measurements as given in US10206937B2, “Boronic acid derivatives and therapeutic uses thereof” (Qpex Biopharma, Inc., priority 2014, dated 2019).

Test system: strains of Enterobacteriaceae producing various carbapenemases (class A, D and B; 169 strains)
Assay: Meropenem or tebipenem potentiation by Compounds 97 or 62 (MIC)
Type: cell-based
Protocol: The largest panel of clinical isolates expressing class A, D and B carbapenemases alone or in combination with other beta-lactamases (169 strains) was used to evaluate carbapenem potentiation activity of Compounds 97 and 62. MIC for meropenem and tebipenem of these strains were determined either alone or in the presence of Compounds 97 or 62, respectively, at a fixed concentration of 8 μg/ml in the growth media.

Measured: Meropenem MIC alone (M)

C[C@@H](O)[C@H]1C(=O)N2C(C(=O)O)=C(S[C@@H]3CN[C@H](C(=O)N(C)C)C3)[C@H](C)[C@H]12 [M]
Y (MIC of 1 μg/mL to 10 μg/mL): CF1022 Citrobacter freundii SHV-12(2be), TEM-OSBL(2b), IMP-8 | ECL1055 Enterobacter cloacae KPC-3, TEM | ECL1090 Enterobacter cloacae TEM-1(2b), CTX-M-22, ACT-type, IMP-8 | ECL1092 Enterobacter cloacae TEM-OSBL(2b), ACT-32, VIM-1 | ECL1093 Enterobacter cloacae TEM-OSBL(2b), ACT-32, VIM-1 | KP1054 Klebsiella pneumoniae VIM-1, SHV-11 | KP1065 Klebsiella pneumoniae VIM-1, SHV-11 | KP1173 Klebsiella pneumoniae TEM-33(2br), CTX-M-15, IMP-1 | KP1174 Klebsiella pneumoniae CTX-M-14, IMP-1 | KP1180 Klebsiella pneumoniae SHV-OSBL(2b), TEM-OSBL(2b), CTX-M-15, DHA-1, IMP-26
Z (MIC of greater than 10 μg/mL): CF1023 Citrobacter freundii SHV-12(2be), TEM-OSBL(2b), CTX-M-3, CMY-34, NDM-1 | EC1061 Escherichia coli NDM-1, CMY-6 | EC1069 Escherichia coli CTX-M-27, NDM-1 | EC1070 Escherichia coli TEM-OSBL(2b), CMY-42, NDM-5 | EC1072 Escherichia coli CTX-M-3, NDM-1 | ECL1045 Enterobacter cloacae VIM-1 | ECL1057 Enterobacter cloacae NDM-1, TEM-1, CTX-M-15 | ECL1084 Enterobacter cloacae CTX-M-15, ACT-16, NDM-1 | ECL1085 Enterobacter cloacae SHV-31(2be), TEM-1(2b), CTX-M-15, NDM-1 | ECL1087 Enterobacter cloacae VIM-1 | ECL1094 Enterobacter cloacae VIM-1 | ECL1095 Enterobacter cloacae SHV-12(2be), TEM-OSBL(2b), CMY-4, ACT-16, VIM-4, OXA-48(c) | ECL1096 Enterobacter cloacae CMY-4, VIM-4, OXA-48(c) | ECL1097 Enterobacter cloacae SHV-31(2be), TEM-OSBL(2b), CTX-M-15, ACT-31, NDM-1 | ECL1098 Enterobacter cloacae TEM-OSBL(2b), DHA-1, ACT-16, NDM-1 | KP1059 Klebsiella pneumoniae VIM-1, SHV-11 | KP1061 Klebsiella pneumoniae KPC-3, TEM-1, SHV-11 | KP1064 Klebsiella pneumoniae KPC-2, TEM-1, SHV-11 | KP1070 Klebsiella pneumoniae KPC-2, SHV-11, TEM-1 | KP1074 Klebsiella pneumoniae KPC-3, SHV-11, TEM | KP1081 Klebsiella pneumoniae NDM-1, TEM-1, SHV-11, CMY-6, CTX-M-15 | KP1158 Klebsiella pneumoniae KPC-2, VIM-1 | KP1159 Klebsiella pneumoniae SHV-1(2b), CTX-M-15, IMP-4 | KP1160 Klebsiella pneumoniae SHV-28(2be), CTX-M-15, IMP-26 | KP1161 Klebsiella pneumoniae NDM-1 | KP1162 Klebsiella pneumoniae SHV-1(2b), CTX-M-15, IMP-4 | KP1163 Klebsiella pneumoniae SHV-11(2b), MOX-1, KPC-2, VIM-1 | KP1164 Klebsiella pneumoniae SHV-12(2be), VIM-1 | KP1165 Klebsiella pneumoniae SHV-11(2b), CTX-M-15, VIM-27 | KP1166 Klebsiella pneumoniae SHV-5(2be), VIM-26 | KP1168 Klebsiella pneumoniae SHV-11(2b), CTX-M-15, VIM-27 | KP1169 Klebsiella pneumoniae SHV-11(2b), VIM-1 | KP1170 Klebsiella pneumoniae SHV-11(2b), CTX-M-15, NDM-1 | KP1172 Klebsiella pneumoniae SHV-31(2be), DHA-1, VIM-1 | KP1175 Klebsiella pneumoniae SHV-OSBL(2b), VIM-1 | KP1176 Klebsiella pneumoniae SHV-12(2be), TEM-OSBL(2b), CMY-13, KPC-2, VIM-1 | KP1177 Klebsiella pneumoniae SHV-OSBL(2b), TEM-OSBL(2b), CTX-M-15, NDM-1 | KP1178 Klebsiella pneumoniae SHV-OSBL(2b), TEM-OSBL(2b), CTX-M-15, NDM-1 | KP1179 Klebsiella pneumoniae SHV-12(2be), TEM-OSBL(2b), CTX-M-15, NDM-7 | KP1181 Klebsiella pneumoniae SHV-OSBL(2b), CTX-M-15, IMP-26
